{
  "source": "patent US20080153862A1",
  "about": "“SPIROPIPERIDINE DERIVATIVES” (priority 2006, published 2008)",
  "data": [
    {"target": "T1, human V1a receptor (Homo sapiens, UniProt P37288)", "T1 construct": "expressed in transfected cells; host or cells: HEK293 cells, transiently transfected; membrane preparation", "T1 sequence (P37288 whole entry)": "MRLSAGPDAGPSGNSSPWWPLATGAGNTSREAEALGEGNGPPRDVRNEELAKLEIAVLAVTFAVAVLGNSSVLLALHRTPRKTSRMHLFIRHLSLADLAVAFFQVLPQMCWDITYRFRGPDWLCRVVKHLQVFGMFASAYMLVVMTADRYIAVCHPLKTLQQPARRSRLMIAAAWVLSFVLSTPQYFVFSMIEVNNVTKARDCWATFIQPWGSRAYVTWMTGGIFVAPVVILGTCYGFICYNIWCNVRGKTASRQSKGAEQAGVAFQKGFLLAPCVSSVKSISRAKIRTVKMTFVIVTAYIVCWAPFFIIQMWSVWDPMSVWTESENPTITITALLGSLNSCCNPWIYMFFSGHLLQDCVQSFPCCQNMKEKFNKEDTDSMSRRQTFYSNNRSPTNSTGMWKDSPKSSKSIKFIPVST", "assay": "V1a activity: human V1a receptor binding (3H-Vasopressin SPA, HEK293 membranes)", "details": "membranes of HEK293 cells transiently transfected with human V1a receptor, Ki by Cheng-Prussoff equation, read-out: pKi hV1a (converted)", "experimental": "The human V1a receptor was cloned by RT-PCR from total human liver RNA. The coding sequence was subcloned in an expression vector after sequencing to confirm the identity of the amplified sequence. […] Cell membranes were prepared from HEK293 cells transiently transfected with the expression vector and grown in 20 liter fermenters with the following protocol.\n50 g of cells were resuspended in 30 ml freshly prepared ice cold Lysis buffer (50 mM HEPES, 1 mM EDTA, 10 mM MgCl2 adjusted to pH=7.4+complete cocktail of protease inhibitor (Roche Diagnostics)); homogenized with Polytron for 1 min; and sonicated on ice for 2×2 minutes at 80% intensity (Vibracell sonicator). The preparation was centrifuged 20 min at 500 g at 4° C., the pellet was discarded and the supernatant centrifuged 1 hour at 43′000 g at 4° C. (19′000 rpm). The pellet was resuspended in 12.5 ml Lysis buffer+12.5 ml Sucrose 20% and homogenized using a Polytron for 1-2 min. The protein concentration was determined by the Bradford method, and aliquots were stored at −80° C. until use. For binding studies 60 mg Yttrium silicate SPA beads (Amersham) were mixed with an aliquot of membrane in binding buffer (50 mM Tris, 120 mM NaCl, 5 mM KCl, 2 mM CaCl2, 10 mM MgCl2) for 15 minutes with mixing. 50 ul of bead/membrane mixture was then added to each well of a 96 well plate, followed by 50 ul of 4 nM 3H-Vasopressin (American Radiolabeled Chemicals). For total binding measurement 100 ul of binding buffer were added to the respective wells, for non-specific binding 100 ul of 8.4 mM cold vasopressin and for compound testing 100 ul of a serial dilution of each compound in 2% DMSO. The plate was incubated 1 h at room temperature, centrifuged 1 min at 1000 g and counted on a Packard Top-Count. Non-specific binding counts were subtracted from each well and data was normalized to the maximum specific binding set at 100%. To calculate an IC 50 the curve was fitted using a non-linear regression model (XLfit), and the Ki was calculated using the Cheng-Prussoff equation.", "units": {"Ki": "nM"}, "values": [
      {"smiles": "O=C(c1ccc2ccccc2c1)N1CCC2(CC1)C(=O)Nc1ccc(Br)cc12", "note": "[Example 33, 5-Bromo-1′-(2-naphthoyl)spiro[indole-3,4′-piperidin]-2(1H)-one]", "Ki": 110},
      {"smiles": "COc1cc(C(=O)N2CCC3(CC2)OCc2ccccc23)c2[nH]ccc2c1", "note": "[Example 27, 1′-[(5-Methoxy-1H-indol-7-yl)carbonyl]-3H-spiro[2-benzofuran-1,4′-piperidine]]", "Ki": 50.1},
      {"smiles": "O=C1OC2(CCN(C(=O)c3ccc(Cl)c(Cl)c3)CC2)c2ccc(F)cc21", "note": "[Example 11, 1′-(3,4-Dichlorobenzoyl)-5-fluoro-3H-spiro[2-benzofuran-1,4′-piperidin]-3-one]", "Ki": 29.5},
      {"smiles": "O=C(c1ccc2ccccc2c1)N1CCC2(C=Cc3ccccc32)CC1", "note": "[Example 36, 1′-(2-Naphthoyl)spiro[indene-1,4′-piperidine]]", "Ki": 89.1},
      {"smiles": "COc1ccc2c(c1)C1(CCN(C(=O)c3ccc4ccccc4c3)CC1)OC2=O", "note": "[Example 1, 6-Methoxy-1′-(2-naphthoyl)-3H-spiro[2-benzofuran-1,4′-piperidin]-3-one]", "Ki": 8.32},
      {"smiles": "O=C1OC2(CCN(C(=O)c3ccc(Cl)c(Cl)c3)CC2)c2cc(OCCO)ccc21", "note": "[Example 12, 1′-(3,4-Dichlorobenzoyl)-6-(2-hydroxyethoxy)-3H-spiro[2-benzofuran-1,4′-piperidin]-3-one]", "Ki": 21.9},
      {"smiles": "O=C1OC2(CCN(C(=O)c3ccc(Cl)c(Cl)c3)CC2)c2ccccc21", "note": "[Example 6, 1′-(3,4-Dichlorobenzoyl)-3H-spiro[2-benzofuran-1,4′-piperidin]-3-one]", "Ki": 19.1},
      {"smiles": "COc1ccc2c(c1)C1(CCN(C(=O)c3ccc(Cl)c(Cl)c3)CC1)OC2=O", "note": "[Example 7, 1′-(3,4-Dichlorobenzoyl)-6-methoxy-3H-spiro[2-benzofuran-1,4′-piperidin]-3-one]", "Ki": 28.8},
      {"smiles": "O=C(c1ccc(Cl)c(Cl)c1)N1CCC2(CCc3ccccc32)CC1", "note": "[Example 42, 1′-(3,4-Dichlorobenzoyl)-2,3-dihydrospiro[indene-1,4′-piperidine]]", "Ki": 112},
      {"smiles": "COc1ccc2c(c1)C(=O)OC21CCN(C(=O)c2ccc(Cl)c(Cl)c2)CC1", "note": "[Example 9, 1′-(3,4-Dichlorobenzoyl)-5-methoxy-3H-spiro[2-benzofuran-1,4′-piperidin]-3-one]", "Ki": 47.9},
      {"smiles": "CC(C)(C)c1ccc(C(=O)N2CCC3(CC2)OCc2ccccc23)cc1", "note": "[Example 25, 1′-(4-tert-Butylbenzoyl)-3H-spiro[2-benzofuran-1,4′-piperidine]]", "Ki": 63.1}
    ]}
  ]
}
